# Test results as given in US20220362771A1, “USE OF DROPLET SINGLE CELL EPIGENOME PROFILING FOR PATIENT STRATIFICATION” (HiFiBio SAS, priority 2018, published 2022).
# Read-outs that look alike come from different tables or passages of the source.
# Key:
# MNase = MNase (Staphylococcus aureus, UniProt P00644); test: EGTA inactivation of MNase activity in droplets; type: biochemical; details: fraction of oligonucleotide remaining measured by TapeStation, normalized to droplets without MNase
# Procedure: FIG. 3 depicts the concentration of EGTA necessary to fully inactivates MNase activity in droplets. The fraction of oligonucleotide remaining after incubation was measured by TapeStation and normalized to the digestion negative control (i.e droplets without MNase). 26 mM final concentration of EGTA fully inactivated MNase in droplets.
# At the end of the encapsulation, droplets are incubated off-chip for single-cell chromatin fragmentation. Cells are lysed in droplets, making their nuclear DNA accessible for MNase enzyme. The kinetic of the digestion is particularly important to yield preferentially mono-nucleosomes, which are retained in the droplet. The ideal incubation time is defined as the time necessary to get 100% of nuclear DNA fragmented into mono-nucleosomes. The digestion conditions including lysis buffer composition, MNase concentration and incubation time are precisely calibrated for each sample by performing a time-course study. The calibration is carried out as follows: 45 pl droplets containing cells, lysis buffer and MNase are produced, collected in a collection tube and placed at 37° C. for different incubation time. At each time point, a fraction of droplets is broken and MNase immediately inactivated by addition of EGTA (see FIG. 3). DNA fragments are then purified and analyzed by electrophoresis. […]
# [1] = test system: HBCx-22 luminal ER+ breast PDX; details: cited from earlier work
# [2] = test system: HBCx-95 triple-negative breast tumor PDX; test: breast tumor PDX model of acquired resistance to Capecitabine; type: in vivo, mice
# Procedure: (a) n=6 mice with HBCx-95 derivatives were treated with Capecitabine for 6 weeks. Graphs represent relative tumor volumes (RTV, mm3) with time. Mice with recurrent tumors were treated for a second round of Capecitabine when PDX reached a volume of over 200 mm3 (mice #35, #40 & #33). […] Samples studied in manuscript are indicated with a dashed rectangle. (b) Histograms of the distribution of scChIP-seq raw and unique sequencing reads per cell in untreated HBCx-95 and Capecitabine-resistant HBCx-95-CapaR PDX. (c) Scatter plot displaying the log 2 enrichments in cumulative single-cell versus bulk H3K27me3 ChIP-seq data, calculated based on the counts per million mapped reads in 50 kb genomic bins. Pearson correlation score and p-value are computed genome-wide. (d) Distribution of the log 2 enrichments in 50 kb genomic bins for cumulative single-cell and bulk H3K27me3 ChIP-seq data. Amplitude between maximum and minimum log 2 enrichments are indicated on the top right for each ChIP-seq method (either bulk or single-cell).
# It was profiled the H3K27me3 landscape at single-cell resolution for both sensitive and resistant xenografts, HBCx-95 and HBCx-95-CapaR (FIG. 17b), and it was also performed scRNA-seq to evaluate transcriptional heterogeneity within the same cell suspension (FIG. 18a). Cumulative single-cell chromatin profiles match bulk ChIP-seq profiles (FIG. 17c-d, r=0.89 with p<10-15).
structure (smiles),measurement,setting,value
O=C(O)CN(CCOCCOCCN(CC(=O)O)CC(=O)O)CC(=O)O [EGTA],final concentration of EGTA that fully inactivated MNase in droplets,MNase,26 mM
CC/C(=C(\c1ccccc1)c1ccc(OCCN(C)C)cc1)c1ccccc1 [Tamoxifen],tumor response to Tamoxifen,"[1]; HBCx-22-TamR tumor derivative, previously characterized",acquired resistance
same,tumor response to Tamoxifen,[1]; HBCx-22 PDX,responsive
CCCCCOC(=O)Nc1nc(=O)n([C@@H]2O[C@H](C)[C@@H](O)[C@H]2O)cc1F [Capecitabine],tumor response to Capecitabine (relative tumor volume),"[2]; mouse #40, recurrent tumor, second round of Capecitabine, PDX extracted at 1080 mm3 as HBCx-95-CapaR",did not respond
same,tumor response to Capecitabine,"[2]; xenograft derivatives from an individual patient (HBCx-95), before two cycles of treatment",initially responsive
